Twelve molecules from patent publication US20260022142A1, “MACROCYCLIC IMMUNOMODULATORS” (Bristol-Myers Squibb Company, priority 2022, published 2026) can be followed below.

Usually IC50 stands for the midpoint of a concentration-inhibition curve.

The structures appear in SMILES notation. Numbered stars: 1 amine (or outer) side, 2 acyl side, 3 side chain; on linkers, the order of the positions; unused ones are H or OH. Bridge positions count the residues as written; N and C are the ends. Square brackets hold non-standard residues; d marks the D form. Peptide text beside a SMILES is read from it. * marks the point of attachment. ξ: configuration not given here. Phe(3-CF3) = N[C@@H](Cc1cccc(C(F)(F)F)c1)C(=O)O; Phe(4-COOH) = N[C@@H](Cc1ccc(C(=O)O)cc1)C(=O)O; Bip = N[C@@H](Cc1ccc(-c2ccccc2)cc1)C(=O)O; Phe(4-CN) = N#Cc1ccc(C[C@H](N)C(=O)O)cc1; NH(CH2)14COOH = O=C(O)CCCCCCCCCCCCCCN*; Phe(3-Me) = Cc1cccc(C[C@H](N)C(=O)O)c1; Val(3-OH) = CC(C)(O)[C@H](N)C(=O)O; X6 = O=C(Cc1ccc(CN[*:1])cc1)[*:2]; hArg = N=C(N)NCCCC[C@H](N)C(=O)O; 4Pal = N[C@@H](Cc1ccncc1)C(=O)O; Cha = N[C@@H](CC1CCCCC1)C(=O)O; Cit = NC(=O)NCCC[C@H](N)C(=O)O; Thr(3ξ) = CC(O)[C@H](N)C(=O)O; 4Abz = Nc1ccc(C(=O)O)cc1; Carboxymethyl = O=C(O)C*; Orn = NCCC[C@H](N)C(=O)O; Aun = NCCCCCCCCCCC(=O)O; Dab = NCC[C@H](N)C(=O)O; Dap = NC[C@H](N)C(=O)O; AEEA = NCCOCCOCC(=O)O; ξC = NC(CS)C(=O)O

For this test, the target named is T1, PD-1/PD-L1 interaction (PE-labeled human PD-L1-Ig binding to Jurkat cell line over-expressing human PD-1) (Homo sapiens, UniProt Q15116).
T1 construct: expressed in transfected cells; host or cells: Jurkat
T1 sequence (Q15116 25-288): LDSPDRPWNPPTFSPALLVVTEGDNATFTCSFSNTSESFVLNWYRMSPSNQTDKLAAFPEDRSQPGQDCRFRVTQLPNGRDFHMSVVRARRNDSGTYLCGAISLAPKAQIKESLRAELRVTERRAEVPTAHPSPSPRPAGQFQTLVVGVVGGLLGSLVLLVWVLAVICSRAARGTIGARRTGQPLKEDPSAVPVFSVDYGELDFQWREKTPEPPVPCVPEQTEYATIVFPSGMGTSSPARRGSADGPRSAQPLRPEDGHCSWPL
As to the kind of experiment: Jurkat-PD-1 Cell Binding High-Content Screening Assay (CBA). In kind it is cell-based. The conditions noted are these: Jurkat cell line over-expressing human PD-1; PE-labeled PD-L1-Ig 20 nM final; read-out: Jurkat hPD1-PDL1 IC50. In outline:
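Jurkat cells over-expressing human PD-1 (8×10^3 per well, DMEM/10% FCS) preincubated with compound 2 h at 37° C, then PE-labeled human PD-L1-Ig (20 nM final) added for 1 h. Cells fixed with paraformaldehyde, Hoechst-stained, and bound fluorescence quantified by high-content imaging.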
`CC(C)C[C@H]1NC(=O)[C@H](CCCN)NC(=O)[C@H](C(C)C)NC(=O)[C@H](Cc2ccc(-c3ccccc3)cc2)NC(=O)[C@H](C(C)C)NC(=O)[C@H](Cc2c[nH]c3ccccc23)NC(=O)[C@H](CC(=O)O)NC(=O)[C@H](Cc2ccc(OCC(=O)O)cc2)NC(=O)[C@H](C(C)O)NC(=O)CSC[C@@H](C(=O)N[C@@H](CC(N)=O)C(=O)NCCOCCOCC(=O)N[C@@H](CCCN)C(=O)NCCCCCCCCCCC(=O)O)NC(=O)[C@H](C(C)O)NC(=O)[C@H](C(C)C)NC(=O)[C@H](CC2CCCCC2)NC(=O)[C@H](CCN)NC1=O` (stereo partly drawn) [Compound 3031] ({CH2CO}-[Thr(3ξ)]Y(Carboxymethyl)DWV[Bip]V[Orn][dL][Dab][Cha]V[Thr(3ξ)]CN[AEEA][Orn][Aun]-OH; thioether N-14): the IC50 was 3.4 nM.

For the molecule `CC(C)C[C@H]1NC(=O)[C@H](CCCN)NC(=O)[C@H](Cc2ccc(C(=O)O)cc2)NC(=O)[C@H](Cc2ccc(-c3ccccc3)cc2)NC(=O)[C@H](Cc2ccc(C(=O)O)cc2)NC(=O)[C@H](Cc2cccc(C(F)(F)F)c2)NC(=O)[C@H](CC(=O)O)NC(=O)[C@H](Cc2ccc(OCC(=O)O)cc2)NC(=O)[C@H](Cc2ccc(OCC(=O)O)cc2)NC(=O)CSC[C@@H](C(=O)N[C@@H](CCN)C(=O)NCCOCCOCC(=O)NCCOCCOCC(=O)NCCCCCCCCCCCCCCC(=O)O)NC(=O)[C@H](CO)NC(=O)[C@H](C(C)(C)O)NC(=O)[C@H](CC2CCCCC2)NC(=O)[C@H](CCN)NC1=O` [Compound 3839] ({CH2CO}-Y(Carboxymethyl)Y(Carboxymethyl)D[Phe(3-CF3)][Phe(4-COOH)][Bip][Phe(4-COOH)][Orn][dL][Dab][Cha][Val(3-OH)]SC[Dab][AEEA][AEEA]-{NH(CH2)14COOH}; thioether N-14), the IC50 was found to be 178 nM.

Take `Cc1cccc(C[C@@H]2NC(=O)[C@H](CC(=O)O)NC(=O)[C@H](Cc3ccc(OCC(=O)O)cc3)NC(=O)[C@H](CCCNC(=N)N)NC(=O)CSC[C@@H](C(=O)N[C@@H](CCN)C(=O)NCCCCCCCCCCC(=O)O)NC(=O)[C@H]([C@@H](C)O)NC(=O)[C@H](C(C)C)NC(=O)[C@H](CC3CCCCC3)NC(=O)[C@H](CCN)NC(=O)[C@@H](CC(C)C)NC(=O)[C@H](CCN)NC(=O)[C@H](CCCNC(N)=O)NC(=O)[C@H](Cc3ccc(-c4ccccc4)cc3)NC(=O)[C@H](C(C)C)NC2=O)c1` [Compound 2777] ({CH2CO}-RY(Carboxymethyl)D[Phe(3-Me)]V[Bip][Cit][Dab][dL][Dab][Cha]VTC[Dab][Aun]-OH; thioether N-14): the IC50 came to 20.1 nM.

Regarding `CC(C)C[C@@H]1NC(=O)[C@H](Cc2c[nH]c3ccccc23)NC(=O)[C@H](CC(=O)O)NC(=O)[C@H](Cc2ccncc2)NC(=O)[C@H](Cc2ccc(OCC(=O)O)cc2)NC(=O)CSC[C@@H](C(=O)Nc2ccc(C(=O)NCCCCCCCCCCC(=O)O)cc2)NC(=O)[C@H](CCN)NC(=O)[C@H](C(C)C)NC(=O)[C@H](CC2CCCCC2)NC(=O)[C@H](CCN)NC(=O)[C@@H](CC(C)C)NC(=O)[C@H](CCCN)NC(=O)[C@H](C(C)C)NC(=O)[C@H](Cc2ccc(-c3ccccc3)cc2)NC1=O` [Compound 1229] ({CH2CO}-Y(Carboxymethyl)[4Pal]DWL[Bip]V[Orn][dL][Dab][Cha]V[Dab]C[4Abz][Aun]-OH; thioether N-14), the IC50 was 518 nM.

With `Cc1cccc(C[C@@H]2NC(=O)[C@H](CC(=O)O)NC(=O)[C@H](Cc3ccc(O)cc3)NC(=O)[C@@H](CCCNC(=N)N)NC(=O)CSC[C@@H](C(=O)N[C@@H](CCN)C(=O)NCCCCCCCCCCC(=O)O)NC(=O)[C@H](CO)NC(=O)[C@H](C(C)(C)O)NC(=O)[C@H](CC3CCCCC3)NC(=O)[C@H](CCN)NC(=O)[C@@H](CC(C)C)NC(=O)[C@H](CCCN)NC(=O)[C@H](Cc3ccc(OCC(=O)O)cc3)NC(=O)[C@H](Cc3ccc(-c4ccccc4)cc3)NC(=O)[C@H](Cc3ccc(OCC(=O)O)cc3)NC2=O)c1` [Compound 3640] ({CH2CO}-[dR]YD[Phe(3-Me)]Y(Carboxymethyl)[Bip]Y(Carboxymethyl)[Orn][dL][Dab][Cha][Val(3-OH)]SC[Dab][Aun]-OH; thioether N-14), the IC50 came out at 11 nM.

Turning to `Cc1cccc(C[C@@H]2NC(=O)[C@H](CC(=O)O)NC(=O)[C@H](Cc3ccc(OCC(=O)O)cc3)NC(=O)[C@H](C(C)O)NC(=O)CSC[C@@H](C(=O)N[C@@H](CCN)C(=O)NCCCCCCCCCCC(=O)O)NC(=O)[C@H](C(C)O)NC(=O)[C@H](C(C)C)NC(=O)[C@H](CC3CCCCC3)NC(=O)[C@H](CCN)NC(=O)[C@@H](CC(C)C)NC(=O)[C@H](CCCN)NC(=O)[C@H](Cc3ccc(OCC(=O)O)cc3)NC(=O)[C@H](Cc3ccc(-c4ccccc4)cc3)NC(=O)[C@H](Cc3ccc(C(=O)O)cc3)NC2=O)c1` (stereo partly drawn) [Compound 3484] ({CH2CO}-[Thr(3ξ)]Y(Carboxymethyl)D[Phe(3-Me)][Phe(4-COOH)][Bip]Y(Carboxymethyl)[Orn][dL][Dab][Cha]V[Thr(3ξ)]C[Dab][Aun]-OH; thioether N-14), the IC50 is 6.7 nM.

For the molecule `Cc1cccc(C[C@@H]2NC(=O)[C@H](CC(=O)O)NC(=O)[C@H](Cc3ccc(OCC(=O)O)cc3)NC(=O)[C@H](CCCCNC(=N)N)NC(=O)CSC[C@@H](C(=O)NCC(=O)NCCOCCOCC(=O)N[C@@H](CCN)C(=O)NCCCCCCCCCCC(=O)O)NC(=O)[C@H](CCCN)NC(=O)[C@H](C(C)C)NC(=O)[C@H](CC3CCCCC3)NC(=O)[C@H](CCN)NC(=O)[C@@H](CC(C)C)NC(=O)[C@H](CCCN)NC(=O)[C@H](C(C)C)NC(=O)[C@H](Cc3ccc(-c4ccccc4)cc3)NC(=O)[C@H](C(C)C)NC2=O)c1` [Compound 3246] ({CH2CO}-[hArg]Y(Carboxymethyl)D[Phe(3-Me)]V[Bip]V[Orn][dL][Dab][Cha]V[Orn]CG[AEEA][Dab][Aun]-OH; thioether N-14), the IC50 turned out to be 26.5 nM.

On to `CC(C)C[C@H]1NC(=O)[C@H](CCCN)NC(=O)[C@H](C(C)C)NC(=O)[C@H](Cc2ccc(-c3ccccc3)cc2)NC(=O)[C@H](C(C)C)NC(=O)[C@H](Cc2c[nH]c3ccccc23)NC(=O)[C@H](CC(=O)O)NC(=O)[C@H](Cc2ccc(OCC(=O)O)cc2)NC(=O)[C@H](CN)NC(=O)CSCC(C(=O)N[C@H](CC(N)=O)C(=O)NCCCCCCCCCCC(=O)O)NC(=O)[C@H]([C@@H](C)O)NC(=O)[C@H](C(C)C)NC(=O)[C@H](CC2CCCCC2)NC(=O)[C@H](Cc2cnc[nH]2)NC1=O` (stereo partly drawn) [Compound 1125] ({CH2CO}-[Dap]Y(Carboxymethyl)DWV[Bip]V[Orn][dL]H[Cha]VT[ξC][dN][Aun]-OH; thioether N-14), for which the IC50 worked out at 35.6 nM.

Turning to `Cc1cccc(C[C@@H]2NC(=O)[C@H](CC(=O)O)NC(=O)[C@H](Cc3ccc(OCC(=O)O)cc3)NC(=O)[C@H](CN)NC(=O)CSC[C@@H](C(=O)N[C@@H](CCCN)C(=O)NCc3ccc(CC(=O)NCCCCCCCCCCC(=O)O)cc3)NC(=O)[C@H](CN)NC(=O)[C@H](C(C)C)NC(=O)[C@H](CC3CCCCC3)NC(=O)[C@H](CCN)NC(=O)[C@@H](CC(C)C)NC(=O)[C@H](CCCN)NC(=O)[C@H](C(C)C)NC(=O)[C@H](Cc3ccc(-c4ccccc4)cc3)NC(=O)[C@H](C(C)C)NC2=O)c1` [Compound 2004] ({CH2CO}-[Dap]Y(Carboxymethyl)D[Phe(3-Me)]V[Bip]V[Orn][dL][Dab][Cha]V[Dap]C[Orn][X6][Aun]-OH; thioether N-14), the IC50 came to 18.6 nM.

`Cc1cccc(C[C@@H]2NC(=O)[C@H](CC(=O)O)NC(=O)[C@H](Cc3ccc(C(=O)O)cc3)NC(=O)[C@H](Cc3ccc(C#N)cc3)NC(=O)CSC[C@@H](C(=O)N[C@@H](CCN)C(=O)NCCCCCCCCCCC(=O)O)NC(=O)[C@H](CO)NC(=O)[C@H](C(C)(C)O)NC(=O)[C@H](CC3CCCCC3)NC(=O)[C@H](CCN)NC(=O)[C@@H](CC(C)C)NC(=O)[C@H](CCCN)NC(=O)[C@H](Cc3ccc(OCC(=O)O)cc3)NC(=O)[C@H](Cc3ccc(-c4ccccc4)cc3)NC(=O)[C@H](Cc3ccc(OCC(=O)O)cc3)NC2=O)c1` [Compound 1003] ({CH2CO}-[Phe(4-CN)][Phe(4-COOH)]D[Phe(3-Me)]Y(Carboxymethyl)[Bip]Y(Carboxymethyl)[Orn][dL][Dab][Cha][Val(3-OH)]SC[Dab][Aun]-OH; thioether N-14): the 50% inhibitory concentration (IC50) is 14.8 nM.

Turning to `CC(C)C[C@H]1NC(=O)[C@H](CCCN)NC(=O)[C@H](C(C)C)NC(=O)[C@H](Cc2ccc(-c3ccccc3)cc2)NC(=O)[C@H](C(C)C)NC(=O)[C@H](Cc2c[nH]c3ccccc23)NC(=O)[C@H](CC(=O)O)NC(=O)[C@H](Cc2ccc(OCC(=O)O)cc2)NC(=O)[C@H](CCCCNC(=N)N)NC(=O)CSC[C@@H](C(=O)N[C@@H](CN)C(=O)NCCCCCCCCCCC(=O)O)NC(=O)[C@H](C(C)O)NC(=O)[C@H](C(C)C)NC(=O)[C@H](CC2CCCCC2)NC(=O)[C@H](Cc2cnc[nH]2)NC1=O` (stereo partly drawn) [Compound 3152] ({CH2CO}-[hArg]Y(Carboxymethyl)DWV[Bip]V[Orn][dL]H[Cha]V[Thr(3ξ)]C[Dap][Aun]-OH; thioether N-14), the IC50 worked out at 46.7 nM.

As to `CC(C)C[C@@H]1NC(=O)[C@H](Cc2c[nH]c3ccccc23)NC(=O)[C@H](CC(=O)O)NC(=O)[C@H](Cc2ccc(OCC(=O)O)cc2)NC(=O)[C@H](CN)NC(=O)CSC[C@@H](C(=O)NCCOCCOCC(=O)NCCCCCCCCCCC(=O)O)NC(=O)[C@H](Cc2cnc[nH]2)NC(=O)[C@H](C(C)O)NC(=O)[C@H](CC2CCCCC2)NC(=O)[C@H](CCN)NC(=O)[C@@H](CC(C)C)NC(=O)[C@H](CCCN)NC(=O)[C@H](C(C)C)NC(=O)[C@H](Cc2ccc(-c3ccccc3)cc2)NC1=O` (stereo partly drawn) [Compound 3692] ({CH2CO}-[Dap]Y(Carboxymethyl)DWL[Bip]V[Orn][dL][Dab][Cha][Thr(3ξ)]HC[AEEA][Aun]-OH; thioether N-14), the IC50 worked out at 58.4 nM.
